Measurements reported in publication PMC12282101, “Heat shock protein 90 chaperone activity is required for hepatitis A virus replication” (Journal of Virology, 2025).
Where a name gives a salt, the structure may show the parent alone.

Columns and labels:
18f-NLuc reporter virus = experiment: microbe, parasite or virus in culture; format: cell-based, Hepatitis A virus; details: for activity at 10 µM: Hepatovirus A, Huh-7.5.1, 72 h, read-out: Normalized HAV production
Huh-7.5.1 cells = experiment: Cell viability in the chemical screen (Cell TiterGlo); details: 10 µM compound, 72 h

| Compound | activity at 10 µM (18f-NLuc reporter virus) [%] | Viability Percent DMSO (Huh-7.5.1 cells) [Percent DMSO] | Normalized HAV production (18f-NLuc reporter virus) |
| --- | --- | --- | --- |
| CN(C)CC[C@@H](c1ccc(Cl)cc1)c1ccccn1 [Dexchlorpheniramine Maleate] | 74 | 118 |  |
| CC(C)=O.COC(=O)N[C@H](C(=O)N1CC2(CC2)C[C@H]1c1ncc(-c2ccc3c(c2)C(F)(F)c2cc(-c4ccc5nc([C@@H]6[C@H]7CC[C@H](C7)N6C(=O)[C@@H](NC(=O)OC)C(C)C)[nH]c5c4)ccc2-3)[nH]1)C(C)C [Ledipasvir acetone] |  | 172 | 0.48 |
| COc1ncnc(NS(=O)(=O)c2ccc(N)cc2)c1OC [Sulfadoxine] | 69 | 118 |  |
| CC1(C)S[C@@H]2[C@H](NC(=O)[C@H](N)c3ccccc3)C(=O)N2[C@H]1C(=O)O [Ampicillin Trihydrate] | 76 | 116 |  |
| O=C(/C=C/c1ccc(O)cc1)c1ccc(O)cc1O [Isoliquiritigenin] | 104 | 100 |  |
| CN(C(=O)CN(CCO)CC(=O)N(C)C(C)(C)Cc1ccccc1)C(C)(C)Cc1ccccc1 [Oxethazaine] | 76 | 102 |  |
| O=C1c2cccc(O)c2C(=O)c2c(O)cc(CO)cc21 [Aloe-emodin] | 118 | 90 |  |
| C=CC1=C(C(=O)O)N2C(=O)[C@@H](NC(=O)/C(=N\OCC(=O)O)c3csc(N)n3)[C@H]2SC1 [Cefixime] | 90 | 109 |  |
| Cc1cc(F)c(C(=O)Nc2cccc(-c3nncn3C(C)C)n2)cc1-n1cnc(C2CC2)c1 [Selonsertib] | 38 | 131 |  |
| Cc1cccc(C)c1N(CC(=O)Nc1ccc(-c2ncon2)cc1)C(=O)C1CCS(=O)(=O)CC1 [Amenamevir] | 109 | 116 |  |
| CO[C@H]1/C=C/O[C@@]2(C)Oc3c(C)c(O)c4c(O)c(c(/C=N/N5CCN(C)CC5)c(O)c4c3C2=O)NC(=O)/C(C)=C\C=C\[C@H](C)[C@H](O)[C@@H](C)[C@@H](O)[C@@H](C)[C@H](OC(C)=O)[C@@H]1C [Rifampicin] | 86 | 119 |  |
| C[C@H](NC(=O)C(=O)Nc1ccccc1C(C)(C)C)C(=O)N[C@@H](CC(=O)O)C(=O)COc1c(F)c(F)cc(F)c1F [Emricasan] | 164 | 90 |  |
| Cn1c(Cn2ccc(C(F)(F)F)c(Oc3cc(Cl)cc(C#N)c3)c2=O)n[nH]c1=O [Doravirine] | 140 | 95 |  |
| Cc1cn([C@H]2C=C[C@@H](CO)O2)c(=O)[nH]c1=O [Stavudine] | 101 | 101 |  |
| Nc1ncnc2c1ncn2[C@@H]1O[C@H](CO)[C@@H](O)[C@@H]1O [Vidarabine] | 104 | 119 |  |
| CN[C@@H]1[C@H](O)[C@H](NC)[C@H]2O[C@@]3(O)C(=O)C[C@@H](C)O[C@H]3O[C@@H]2[C@H]1O.Cl.Cl [Spectinomycin dihydrochloride] |  | 109 | 0.83 |
| C[C@@H]1CCO[C@H]2Cn3cc(C(=O)NCc4ccc(F)cc4F)c(=O)c(O)c3C(=O)N12 [Dolutegravir] | 49 | 159 |  |
| O=C(O)c1ccccc1C(=O)Nc1ccc(S(=O)(=O)Nc2nccs2)cc1 [Phthalylsulfathiazole] | 83 | 112 |  |
| COc1cc(NC(=O)Nc2cccc(CNC(=O)O[C@H]3CCOC3)c2)ccc1-c1cnco1 [Merimepodib] | 34 | 159 |  |
| O=c1[nH]c(=O)n([C@H]2C[C@H](O)[C@@H](CO)O2)cc1F [Floxuridine] | 42 | 86 |  |
| COc1cc(O)c(CC=C(C)C)c(O)c1C(=O)/C=C/c1ccc(O)cc1 [Xanthohumol] | 92 | 102 |  |
| O=c1[nH]c(=O)n([C@H]2C[C@H](O)[C@@H](CO)O2)cc1C(F)(F)F [Trifluridine] | 107 | 96 |  |
| Darunavir Ethanolate |  | 111 | 1.54 |

| Compound | activity at 10 µM (18f-NLuc reporter virus) [%] | Viability Percent DMSO (Huh-7.5.1 cells) [Percent DMSO] | Normalized HAV production (18f-NLuc reporter virus) |
| --- | --- | --- | --- |
| CCOC(=O)c1c(C)n(C)c2ccc(O)cc12 [Mecarbinate] |  | 100 | 1.17 |
| O=c1[nH]cnc2c1ncn2[C@H]1CC[C@@H](CO)O1 [Didanosine] | 155 | 108 |  |
| O=C(O)P(=O)(O)O [Foscarnet sodium] | 109 | 94 |  |
| C[C@@]1(F)[C@H](O)[C@@H](CO)O[C@H]1n1ccc(=O)[nH]c1=O [PSI6206] |  | 104 | 1.52 |
| O=C(Nc1ccccc1)c1ccccc1O [Salicylanilide] | 76 | 120 |  |
| O=S(=O)(CCC(F)=C(F)F)c1ncc(Cl)s1 [Fluensulfone] |  | 128 | 0.97 |
| CC(C)[C@H](N)C(=O)OCCOCn1cnc2c(=O)[nH]c(N)nc21 [Valacyclovir hydrochloride] | 87 | 117 |  |
| Cc1cc(C#N)cc(C)c1Oc1nc(Nc2ccc(C#N)cc2)nc(N)c1Br [Etravirine] | 113 | 112 |  |
| CC1(C)O[C@H]2CC(=O)OC[C@]23[C@H]2CC[C@@]4(C)[C@H](c5ccoc5)OC(=O)[C@H]5O[C@]54[C@]2(C)C(=O)C[C@@H]13 [Limonin] | 85 | 111 |  |
| Cc1cc(/C=C/C#N)cc(C)c1Nc1ccnc(Nc2ccc(C#N)cc2)n1 [Rilpivirine] | 71 | 132 |  |
| COC[C@H]1C[C@@H](c2ncc(-c3ccc4c(c3)COc3cc5c(ccc6nc([C@@H]7CC[C@H](C)N7C(=O)[C@@H](NC(=O)OC)C(C)C)[nH]c65)cc3-4)[nH]2)N(C(=O)[C@H](NC(=O)OC)c2ccccc2)C1 [Velpatasvir] | 52 | 121 |  |
| O=C(Nc1ncc([N+](=O)[O-])s1)c1ccccc1O [Tizoxanide] | 113 | 72 |  |
| CC(=O)N(CC(O)CO)c1c(I)c(C(=O)NCC(O)CO)c(I)c(C(=O)NCC(O)CO)c1I (stereo not drawn) [Iohexol] | 157 | 74 |  |
| O=c1[nH]c(=O)n([C@H]2C[C@H](O)[C@@H](CO)O2)cc1I [Dendrid] | 102 | 103 |  |
| C[C@H](Cn1cnc2c(N)ncnc21)OCP(=O)(O)O [Tenofovir] | 128 | 118 |  |
| NC(=O)N1CCC(CC(=O)N2CCC([C@H]3c4ncc(Br)cc4CCc4cc(Cl)cc(Br)c43)CC2)CC1 [Lonafarnib] | 18 | 167 |  |
| COC(=O)N[C@H](C(=O)N1CCC[C@H]1c1nc(-c2ccc(-c3ccc(-c4c[nH]c([C@@H]5CCCN5C(=O)[C@@H](NC(=O)OC)C(C)C)n4)cc3)cc2)c[nH]1)C(C)C [Daclatasvir dihydrochloride] | 88 | 125 |  |
| O[C@H]1[C@H](O)[C@@H](O)[C@H](O)[C@@H](O)[C@H]1O [Inositol] | 122 | 93 |  |
| Nc1ccn([C@@H]2O[C@H](CO)[C@@H](O)[C@@H]2O)c(=O)n1 [Cytarabine] | 66 | 97 |  |
| CN(C)[C@@H]1C(O)=C(C(N)=O)C(=O)[C@@]2(O)C(O)=C3C(=O)c4c(O)cccc4[C@@](C)(O)[C@H]3C[C@@H]12 [Tetracycline] | 89 | 114 |  |
| CC(C)[C@H](N)C(=O)OCC(CO)OCn1cnc2c(=O)nc(N)[nH]c21 (stereo partly drawn) [Valganciclovir hydrochloride] | 90 | 110 |  |
| OC[C@H]1O[C@@H]2O[C@H]3[C@H](O)[C@@H](O)[C@@H](O[C@H]4[C@H](O)[C@@H](O)[C@@H](O[C@H]5[C@H](O)[C@@H](O)[C@@H](O[C@H]6[C@H](O)[C@@H](O)[C@@H](O[C@H]7[C@H](O)[C@@H](O)[C@@H](O[C@H]8[C@H](O)[C@@H](O)[C@@H](O[C@H]1[C@H](O)[C@H]2O)O[C@@H]8CO)O[C@@H]7CO)O[C@@H]6CO)O[C@@H]5CO)O[C@@H]4CO)O[C@@H]3CO [Beta-Cyclodextrin] | 72 | 117 |  |
